Reference: ChEMBL document CHEMBL3217522, “New substituted aryl esters and aryl amides of 3,4-dihydro-2H-1,2,4-benzothiadiazine 1,1-dioxides as positive allosteric modulators of AMPA receptors” (Medchemcomm, 2011)

Tests used:
[1] = biological target: Glutamate receptor ionotropic, AMPA (Rattus norvegicus, UniProt P19490+P19491+P19492+P19493); assay: Positive allosteric modulation of AMPA receptor in embryonic rat brain cells assessed as potentiation of AMPA-induced membrane depolarization after 3 mins by fluorescence assay; type: cell-based
[2] = biological target: T1, Glutamate receptor ionotropic, AMPA (Rattus norvegicus) (UniProt P19491+P19492+P19493+P19490); assay: Positive allosteric modulation of AMPA receptor in embryonic rat brain cells assessed as potentiation of membrane depolarization after 3 mins by fluorescence assay relative to AMPA; type: cell-based
[3] = biological target: T1, Glutamate receptor ionotropic, AMPA (Rattus norvegicus); assay: Positive allosteric modulation of AMPA receptor in embryonic rat brain cells assessed as concentration required for 2-fold increase in AMPA-induced membrane depolarization after 3 mins by fluorescence assay; type: cell-based
[4] = Stability of the compound in PBS at pH 7.4 at 1 mM after 24 hrs at 25 degC HPLC analysis; type: physicochemical; conditions: buffer, pH 7.4, 24 h, 1000 µM
[5] = Stability of the compound in PBS at pH 1 at 1 mM after 24 hrs at 25 degC HPLC analysis; type: physicochemical; conditions: buffer, pH 1, 24 h, 1000 µM

| EC50 [1] | max activation [2] | Activity [3] | Stability [4] | Stability [5] | SMILES |
| --- | --- | --- | --- | --- | --- |
| 7.27 µM | 410% | 6.4 µM |  |  | COc1ccccc1OC(=O)c1ccc2c(c1)S(=O)(=O)NCN2C |
| 3.65 µM | 550% | 3.66 µM | Stable | Stable | CN1CNS(=O)(=O)c2cc(C(=O)Oc3ccccc3)ccc21 |
|  | < 200% | > 100 µM |  |  | CN1CNS(=O)(=O)c2cc(C(=O)N(C)c3ccccc3)ccc21 |
|  | > 360% | 7.08 µM |  |  | CCOc1ccccc1OC(=O)c1ccc2c(c1)S(=O)(=O)NCN2C |
|  | < 200% | > 100 µM |  |  | CCc1ccccc1OC(=O)c1ccc2c(c1)S(=O)(=O)NCN2C |
| 1.72 µM | 410% | 0.94 µM |  |  | Cc1ccccc1OC(=O)c1ccc2c(c1)S(=O)(=O)NCN2C |
|  | < 200% | > 100 µM |  |  | CCN(C(=O)c1ccc2c(c1)S(=O)(=O)NCN2C)c1ccccc1 |
|  | < 200% | > 100 µM |  |  | Cc1cccc(OC(=O)c2ccc3c(c2)S(=O)(=O)NCN3C)c1 |
|  | < 200% | > 100 µM |  |  | CN1CNS(=O)(=O)c2cc(C(=O)Oc3ccccc3OCc3ccccc3)ccc21 |
|  | < 200% | > 100 µM |  |  | CCN1CNS(=O)(=O)c2cc(C(=O)OCc3ccccc3)ccc21 |
|  | < 200% | > 100 µM |  |  | CN1CNS(=O)(=O)c2cc(C(=O)Nc3ccccc3)ccc21 |

The remaining lines, values behind:

| SMILES | EC50 [1] | max activation [2] | Activity [3] | Stability [4] | Stability [5] |
| --- | --- | --- | --- | --- | --- |
| CCN1CNS(=O)(=O)c2cc(C(=O)Oc3ccccc3C)ccc21 | 3.91 µM | 330% | 3.48 µM |  |  |
| CCc1ccccc1OC(=O)c1ccc2c(c1)S(=O)(=O)NCN2CC |  | < 200% | > 100 µM |  |  |
| CCN1CNS(=O)(=O)c2cc(C(=O)Nc3ccccc3)ccc21 |  | < 200% | > 100 µM |  |  |
| COc1ccccc1OC(=O)c1ccc2c(c1)S(=O)(=O)NCN2 |  | < 200% | > 100 µM |  |  |
| CCN1CNS(=O)(=O)c2cc(C(=O)Oc3ccc(C)cc3)ccc21 |  | < 200% | > 100 µM |  |  |
| CCOc1ccccc1OC(=O)c1ccc2c(c1)S(=O)(=O)NCN2CC |  | > 270% | 21.6 µM |  |  |
| CCN1CNS(=O)(=O)c2cc(C(=O)Oc3cccc(OC)c3)ccc21 |  | 200% | > 35 µM |  |  |
| CCN1CNS(=O)(=O)c2cc(C(=O)OCCc3ccccc3)ccc21 |  | < 200% | > 100 µM |  |  |
| CCN1CNS(=O)(=O)c2cc(C(=O)Oc3cccc(OCc4ccccc4)c3)ccc21 |  | < 200% | > 100 µM |  |  |
| CCN1CNS(=O)(=O)c2cc(C(=O)Oc3ccccc3OC)ccc21 |  | 380% | 10.6 µM |  |  |
| CCN1CNS(=O)(=O)c2cc(C(=O)Oc3ccccc3OCc3ccccc3)ccc21 |  | < 200% | > 100 µM |  |  |
| CCCc1ccc(OC(=O)c2ccc3c(c2)S(=O)(=O)NCN3CC)cc1 |  | < 200% | > 100 µM |  |  |
| CCN1CNS(=O)(=O)c2cc(C(=O)Oc3ccc(OC)cc3)ccc21 |  | < 200% | > 100 µM |  |  |
| CCCc1ccccc1OC(=O)c1ccc2c(c1)S(=O)(=O)NCN2CC |  | < 200% | > 100 µM |  |  |
| CCN1CNS(=O)(=O)c2cc(C(=O)Oc3cccc(C)c3)ccc21 |  | < 200% | > 100 µM |  |  |
